Target: CSF1R (Homo sapiens, UniProt P07333)
Experiment: Cellular CSF1R inhibition ELISA (p-CSF1R, M-CSF-induced) using THP-1 cells
Assay type: cell-based
Set-up: THP-1 cells act as a model for human monocytes; endogenous in cells; host or cells: THP-1
Settings: not given
From the text: The normal proto-oncogene c-fms encodes the macrophage growth factor (M-CSF, also known as CSF1) receptor involved in growth, survival, and differentiation along the monocyte-macrophage lineage. THP-1 cells act as a model for human monocytes. It confirms that an increased phosphorylation of CSF1R (p-CSF1R) can be observed, when induced by CSF1R ligand, CSF1.
The THP-1 cells should be maintained from 5×10^5 to 1×10^6 cells/ml in the cell culture flask. After centrifugation, the supernatant is aspirated. The cell pellet is re-suspended with pre-warmed growth medium (RPMI1640, 10% FBS, 0.05 mM 2-Mercaptoethanol) and cells are separated by pipetting 6 times up and down with a 10 ml serological pipette. The cell suspension has to be diluted to a final concentration of 2×10^5 cells per 80 μl with pre-warmed growth medium. 80 μl of cell suspension is added to all wells of plates. Cell-plates are incubated at 37° C./5% CO2. Dissolve compound in 100% DMSO to make 10 mM stock solutions (Aliquots stored in the Nitrogen Cabinet). Dilute 10 mM compounds solutions for 2-fold in 100% DMSO to get 5 mM solutions (10 μl+10 μl DMSO), and then make a 3-fold serial dilution (10 μl+20 μl DMSO) for 10 doses. For reference compounds: Dilute 10 mM compounds solutions for 20-fold in 100% DMSO to get 0.5 mM solutions (2 μl+38 μl DMSO), and then make a 3-fold serial dilution (10 μl+20 μl DMSO) for 10 doses. Transfer 2 μl diluted compounds to 198 μl medium to get solution of 50 μM concentration at top point for compounds and 5 μM for reference compounds. Then transfer 20 μl cpd solution into assay plate (Duplicate wells). The plate is incubated at 37° C./5% CO2 for 24 h. The final concentration of DMSO in all wells is […]. Reconstitute human M-CSF at 50 μg/ml in sterile water. (Aliquots stored in −80° C.). 1:1000 dilute human M-CSF by fresh medium to 50 ng/ml. After 24 h compounds treatment, transfer 25 μl diluted human M-CSF (50 ng/ml) to cell plate according to the plate map. The final concentration of human M-CSF in all wells is 10 ng/ml.
The plates is incubated at 37° C./5% CO2 for 5 min. In the beginning the appropriate amount of lysis buffer complete (100 μL/well) is prepared and stored on ice. After 5 min human M-CSF stimulation, wash plates once with 300 μL ice cold PBS. Then 100 μl lysis buffer is added to each well. The plate is shacked for 40 min at 4° C. Plates can now be stored at −20° C. After equilibrate the micro-well strips at room temperature, break off the required number of micro-wells. Place the micro-wells in the strip holder. Unused micro-wells must be resealed and stored at 4° C. immediately. Add 90 μl of cell lysate to the appropriate well. Seal with tape and press firmly onto top of micro-wells. Incubate the plate for 2 h at 37° C. Gently remove the tape and wash wells 4 times with 1× Wash Buffer, 200 μl each time for each well. Add 100 μl of reconstituted Detection Antibody (green color) to each well. Seal with tape and incubate the plate at 37° C. for 1 h. Repeat wash procedure. Add 100 μl of reconstituted HRP-Linked secondary antibody to each well. Seal with tape and incubate the plate for 30 min at 37° C. Repeat wash procedure. Add 100 μl of TMB Substrate to each well. Seal with tape and incubate the plate for 10 min at 37° C. or 30 min at 25° C. Calculations and Formulas: The following calculations and formulas are used for data analysis using XL Fit software: The curve fitting was made using the Sigmoidal Dose-Response Model (Fit model, 205).

Chain of CSF1R (P07333 20-972): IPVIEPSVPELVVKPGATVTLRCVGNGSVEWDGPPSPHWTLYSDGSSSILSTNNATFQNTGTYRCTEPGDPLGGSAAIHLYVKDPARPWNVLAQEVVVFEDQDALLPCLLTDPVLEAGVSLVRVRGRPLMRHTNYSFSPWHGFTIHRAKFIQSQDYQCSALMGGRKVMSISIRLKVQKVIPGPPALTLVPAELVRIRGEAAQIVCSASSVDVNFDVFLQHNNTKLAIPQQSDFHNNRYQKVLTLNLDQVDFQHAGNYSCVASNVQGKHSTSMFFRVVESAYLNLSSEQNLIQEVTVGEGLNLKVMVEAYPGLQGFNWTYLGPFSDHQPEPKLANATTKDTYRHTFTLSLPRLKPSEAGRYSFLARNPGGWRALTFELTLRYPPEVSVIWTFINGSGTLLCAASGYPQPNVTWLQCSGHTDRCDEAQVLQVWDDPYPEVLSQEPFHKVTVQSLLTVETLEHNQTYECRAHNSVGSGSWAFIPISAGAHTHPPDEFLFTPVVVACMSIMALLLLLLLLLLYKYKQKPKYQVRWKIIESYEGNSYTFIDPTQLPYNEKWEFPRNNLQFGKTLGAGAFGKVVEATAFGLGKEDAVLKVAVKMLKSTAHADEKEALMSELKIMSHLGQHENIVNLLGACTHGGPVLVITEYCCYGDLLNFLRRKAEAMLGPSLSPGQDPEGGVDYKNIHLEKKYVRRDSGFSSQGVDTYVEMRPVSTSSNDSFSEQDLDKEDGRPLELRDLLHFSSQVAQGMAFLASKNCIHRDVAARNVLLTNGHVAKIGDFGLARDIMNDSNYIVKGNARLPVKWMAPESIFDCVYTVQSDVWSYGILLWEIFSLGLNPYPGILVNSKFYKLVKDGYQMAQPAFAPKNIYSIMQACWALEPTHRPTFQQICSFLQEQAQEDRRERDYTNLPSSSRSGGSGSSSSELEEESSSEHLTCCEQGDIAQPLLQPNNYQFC

Question: `COCCn1cc(OCC(F)(F)F)c(C(=O)Nc2ccc(Oc3ccnc4cc(OC)c(OC)cc34)cn2)n1` [Compound 10] was tested. Which IC50 did it give?
Answer: Its IC50 is < 500 nM.

Question: `CCn1cc(OCC(F)(F)F)c(C(=O)Nc2ccc(Oc3ccnc4cc(OC)c(OC)cc34)cn2)n1` [Compound 4] was tested. Which IC50 did it give?
Answer: Its IC50 is < 500 nM.

Question: For `COc1cc2nccc(Oc3ccc(NC(=O)c4n[nH]cc4OCC(F)(F)F)nc3)c2cc1OC` [Compound 16], which IC50 is on record?
Answer: The IC50 was < 500 nM.

Question: With `CCCn1cc(OCC(F)F)c(C(=O)Nc2ccc(Oc3ccnc4cc(OC)c(OC)cc34)cn2)n1` [Compound 12] as the compound, how does the IC50 read?
Answer: Its IC50 is < 500 nM.

Question: `COc1cc2nccc(Oc3ccc(NC(=O)c4nn(CCOC5CC5)cc4OCC(F)(F)F)cc3)c2cc1OC` [Compound 118] was tested. Which IC50 did it give?
Answer: Its IC50 is 500 to 1000 nM.

Question: How did the IC50 turn out when `COc1cc2nccc(Oc3ccc(NC(=O)c4nn(C5CCNC5)cc4OCC(F)(F)F)nn3)c2cc1OC` (stereo not shown) [Compound 122] was run?
Answer: The IC50 was ≥ 1000 nM.

Question: Which IC50 does the source give for `COc1cc2nccc(Oc3ccc(NC(=O)c4nn(C5CC5)cc4OCC(F)(F)F)nn3)c2cc1OC` [Compound 112] here?
Answer: The IC50 was 500 to 1000 nM.

Question: With `CNCCOc1cn(C2CC2)nc1C(=O)Nc1ccc(Oc2ccnc3cc(OC)c(OC)cc23)nn1` [Compound 160] as the compound, how does the IC50 read?
Answer: Its IC50 is ≥ 1000 nM.

Question: With `COc1cc2nccc(Oc3ccc(NC(=O)c4nn(C5CC5)cc4OCCF)nn3)c2cc1OC` [Compound 113] as the compound, how does the IC50 read?
Answer: The IC50 was < 500 nM.

Question: With `CNCCn1cc(OCC(F)(F)F)c(C(=O)Nc2ccc(Oc3ccnc4cc(OC)c(OC)cc34)nn2)n1` [Compound 127] as the compound, how does the IC50 read?
Answer: The IC50 was ≥ 1000 nM.

Question: How did the IC50 turn out when `COc1cc2nccc(Oc3ccc(NC(=O)c4nn(C5CCN(C)C5)cc4OCC(F)(F)F)cn3)c2cc1OC` (stereo not shown) [Compound 133] was run?
Answer: Its IC50 is ≥ 1000 nM.

Question: For `COc1cc2nccc(Oc3ccc(NC(=O)c4nn(CCOC5CC5)cc4OCC(F)(F)F)nn3)c2cc1OC` [Compound 120], which IC50 is on record?
Answer: The IC50 was 500 to 1000 nM.

Question: Which IC50 does the source give for `COc1cc2nccc(Oc3ccc(NC(=O)c4nn(C5CCCC5)cc4OCC(F)(F)F)cn3)c2cc1OC` [Compound 131] here?
Answer: Its IC50 is ≥ 1000 nM.

Question: `COc1cc2nccc(Oc3ccc(NC(=O)c4nn(C5CC5)cc4OCC4CCC4)nn3)c2cc1OC` [Compound 149] was tested. Which IC50 did it give?
Answer: The IC50 was ≥ 1000 nM.

Question: Which IC50 does the source give for `CCCn1cc(OCCN(C)C)c(C(=O)Nc2ccc(Oc3ccnc4cc(OC)c(OC)cc34)c(F)c2)n1` [Compound 165] here?
Answer: Its IC50 is ≥ 1000 nM.

Question: With `COc1cc2nccc(Oc3ccc(NC(=O)c4nn(CCOC5CC5)cc4OCC(F)(F)F)cc3F)c2cc1OC` [Compound 116] as the compound, how does the IC50 read?
Answer: The IC50 was 500 to 1000 nM.

Question: `COc1cc2nccc(Oc3ccc(NC(=O)c4nn(CC5COC5)cc4OCC(F)(F)F)nc3)c2cc1OC` [Compound 92] was tested. Which IC50 did it give?
Answer: Its IC50 is < 500 nM.

Question: For `COc1cc2nccc(Oc3ccc(NC(=O)c4nn(C5CC5)cc4OC(C)C)nn3)c2cc1OC` [Compound 147], which IC50 is on record?
Answer: Its IC50 is 500 to 1000 nM.

Question: How did the IC50 turn out when `CNCCn1cc(OCC(F)(F)F)c(C(=O)Nc2ccc(Oc3ccnc4cc(OC)c(OC)cc34)c(F)c2)n1` [Compound 155] was run?
Answer: The IC50 was ≥ 1000 nM.

Question: Which IC50 does the source give for `COc1cc2nccc(Oc3ccc(NC(=O)c4nn(C5CCN(C)C5)cc4OCC(F)(F)F)cc3)c2cc1OC` (stereo not shown) [Compound 100] here?
Answer: Its IC50 is ≥ 1000 nM.

Question: For `CCCn1cc(OCC(F)(F)F)c(C(=O)Nc2ccc(Oc3ccnc4cc(OC)c(OC)cc34)cn2)n1` [Compound 7], which IC50 is on record?
Answer: The IC50 was < 500 nM.

Question: With `COc1cc2nccc(Oc3ccc(NC(=O)c4nn(C5CC5)cc4NCCC(F)(F)F)nn3)c2cc1OC` [Compound 146] as the compound, how does the IC50 read?
Answer: The IC50 was ≥ 1000 nM.

Question: With `COc1cc2nccc(Oc3ccc(NC(=O)c4nn(C5CC5)cc4NCC(F)(F)F)nc3)c2cc1OC` [Compound 145] as the compound, how does the IC50 read?
Answer: Its IC50 is < 500 nM.

Question: For `CCCn1cc(OCC2CCOCC2)c(C(=O)Nc2ccc(Oc3ccnc4cc(OC)c(OC)cc34)cn2)n1` [Compound 164], which IC50 is on record?
Answer: The IC50 was ≥ 1000 nM.

Question: For `COc1cc2nccc(Oc3ccc(NC(=O)c4nn(C5CCNC5)cc4OCC(F)(F)F)cn3)c2cc1OC` (stereo not shown) [Compound 132], which IC50 is on record?
Answer: The IC50 was ≥ 1000 nM.

Question: With `COc1cc2nccc(Oc3ccc(NC(=O)c4nn(C5CCOC5)cc4OCC(F)(F)F)nn3)c2cc1OC` (stereo not shown) [Compound 128] as the compound, how does the IC50 read?
Answer: Its IC50 is < 500 nM.

Target: CSF1R (Ba/F3 cells) (Homo sapiens, UniProt P07333)
Experiment: BaF3 viability assay, CSF1R-dependent cells
Assay type: cell-based
Settings: read-out: Cellular CSF1R activity by Ba/F3 assay (IC50)
From the text: In this system, IL-3-dependent Ba/F3 cells are modified to express an activated recombinant kinase (in the present case Axl, Mer and CSF1R). Following removal of IL-3, the modified cells are dependent on the activity of the recombinant kinase for survival and proliferation. Inhibition of such kinase(s) through test compounds reduces survival and proliferation of the cells.
Cell lines were maintained in growth media (GM) consisting of RPMI 1640 supplemented with 10% FBS. Cells in logarithmic-phase growth were harvested and 5,000 cells were distributed into each well of a 384-well plate in 50 μl GM. Parental cells (or experimental assays where specified) were further supplemented with 2 ng/ml IL-3 to support cell growth and survival. Fifty nanoliters of the indicated reference standard or experimental compound were added to appropriate wells (in duplicate) and the cells were cultured for 48 h at 37° C./5% CO2. Viability was determined by adding 10 μl Cell Titer Glo and measuring luminescence, which is reported as relative light units (RLU) measured in counts per second. The following calculations and formulas are used for data analysis using GraphPad Prism software: The curve fitting was made using the Dose response curves-Inhibition.

Chain of CSF1R (Ba/F3 cells) (P07333 whole entry, change not shown): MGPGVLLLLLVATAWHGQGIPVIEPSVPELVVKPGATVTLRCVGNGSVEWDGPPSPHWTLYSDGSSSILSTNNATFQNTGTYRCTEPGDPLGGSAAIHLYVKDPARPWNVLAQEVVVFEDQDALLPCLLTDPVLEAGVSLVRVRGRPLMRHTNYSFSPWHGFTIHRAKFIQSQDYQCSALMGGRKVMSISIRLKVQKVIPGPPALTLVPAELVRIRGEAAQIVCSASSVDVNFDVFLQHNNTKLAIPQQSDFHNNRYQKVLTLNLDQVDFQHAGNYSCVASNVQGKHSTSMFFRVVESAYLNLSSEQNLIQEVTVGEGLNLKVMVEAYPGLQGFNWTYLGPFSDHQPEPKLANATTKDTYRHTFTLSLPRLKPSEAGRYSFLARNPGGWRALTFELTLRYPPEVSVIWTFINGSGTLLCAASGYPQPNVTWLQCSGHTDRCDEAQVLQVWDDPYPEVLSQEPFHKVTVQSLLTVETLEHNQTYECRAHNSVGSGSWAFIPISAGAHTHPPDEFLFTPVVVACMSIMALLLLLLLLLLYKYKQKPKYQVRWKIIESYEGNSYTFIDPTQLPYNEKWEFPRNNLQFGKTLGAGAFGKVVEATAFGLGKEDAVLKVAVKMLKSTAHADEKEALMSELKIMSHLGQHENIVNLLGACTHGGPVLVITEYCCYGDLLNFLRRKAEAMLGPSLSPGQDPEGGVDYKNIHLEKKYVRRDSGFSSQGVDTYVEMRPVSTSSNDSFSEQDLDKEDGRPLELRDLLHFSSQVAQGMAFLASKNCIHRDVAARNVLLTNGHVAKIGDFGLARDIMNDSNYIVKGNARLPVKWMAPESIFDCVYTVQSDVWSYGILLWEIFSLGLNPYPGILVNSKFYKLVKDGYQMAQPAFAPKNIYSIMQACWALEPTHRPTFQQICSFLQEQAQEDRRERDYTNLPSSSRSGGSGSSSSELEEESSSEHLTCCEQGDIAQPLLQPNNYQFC

Question: How did the GI50 turn out when `COCCn1cc(OCC(F)(F)F)c(C(=O)Nc2ccc(Oc3ccnc4cc(OC)c(OC)cc34)cn2)n1` [Compound 10] was run?
Answer: The GI50 was < 1000 nM.

Question: With `CCn1cc(OCC(F)(F)F)c(C(=O)Nc2ccc(Oc3ccnc4cc(OC)c(OC)cc34)cn2)n1` [Compound 4] as the compound, how does the GI50 read?
Answer: Its GI50 is < 1000 nM.

Question: With `COc1cc2nccc(Oc3ccc(NC(=O)c4n[nH]cc4OCC(F)(F)F)nc3)c2cc1OC` [Compound 16] as the compound, how does the GI50 read?
Answer: Its GI50 is < 1000 nM.

Question: How did the GI50 turn out when `CCCn1cc(OCC(F)F)c(C(=O)Nc2ccc(Oc3ccnc4cc(OC)c(OC)cc34)cn2)n1` [Compound 12] was run?
Answer: Its GI50 is < 1000 nM.

Question: Which GI50 does the source give for `CCCn1cc(OCC(F)(F)F)c(C(=O)Nc2ccc(Oc3ccnc4cc(OC)c(OC)cc34)cn2)n1` [Compound 7] here?
Answer: The GI50 was < 1000 nM.

Source: patent publication US12162858B2, “Quinoline derivatives as inhibitors of AXL/MER RTK and CSF1R” (QURIENT CO., LTD., priority 2018, dated 2024)
